{"source": "BigSolDB 2.1"}
{"smiles": "CC(C)(C)C(=O)C(Oc1ccc(Cl)cc1)n1ccnc1", "note": "(stereo not drawn)", "values": [{"measurement": "solubility (mole fraction)", "setting": "in acetone, 288.15 K", "result": 0.147}, {"measurement": "solubility (mole fraction)", "setting": "in acetone, 293.15 K", "result": 0.164}, {"measurement": "solubility (mole fraction)", "setting": "in acetone, 298.15 K", "result": 0.185}, {"measurement": "solubility (mole fraction)", "setting": "in acetone, 303.15 K", "result": 0.207}, {"measurement": "solubility (mole fraction)", "setting": "in acetone, 308.15 K", "result": 0.235}, {"measurement": "solubility (mole fraction)", "setting": "in acetone, 313.15 K", "result": 0.259}, {"measurement": "solubility (mole fraction)", "setting": "in acetone, 318.15 K", "result": 0.301}, {"measurement": "solubility (mole fraction)", "setting": "in acetonitrile, 288.15 K", "result": 0.0724}, {"measurement": "solubility (mole fraction)", "setting": "in acetonitrile, 293.15 K", "result": 0.083}, {"measurement": "solubility (mole fraction)", "setting": "in acetonitrile, 298.15 K", "result": 0.103}, {"measurement": "solubility (mole fraction)", "setting": "in acetonitrile, 303.15 K", "result": 0.129}, {"measurement": "solubility (mole fraction)", "setting": "in acetonitrile, 308.15 K", "result": 0.158}, {"measurement": "solubility (mole fraction)", "setting": "in acetonitrile, 313.15 K", "result": 0.19}, {"measurement": "solubility (mole fraction)", "setting": "in acetonitrile, 318.15 K", "result": 0.222}, {"measurement": "solubility (mole fraction)", "setting": "in ethanol, 288.15 K", "result": 0.112}, {"measurement": "solubility (mole fraction)", "setting": "in ethanol, 293.15 K", "result": 0.132}, {"measurement": "solubility (mole fraction)", "setting": "in ethanol, 298.15 K", "result": 0.157}, {"measurement": "solubility (mole fraction)", "setting": "in ethanol, 303.15 K", "result": 0.185}, {"measurement": "solubility (mole fraction)", "setting": "in ethanol, 308.15 K", "result": 0.211}, {"measurement": "solubility (mole fraction)", "setting": "in ethanol, 313.15 K", "result": 0.25}, {"measurement": "solubility (mole fraction)", "setting": "in ethanol, 318.15 K", "result": 0.288}, {"measurement": "solubility (mole fraction)", "setting": "in ethyl acetate, 288.15 K", "result": 0.0909}, {"measurement": "solubility (mole fraction)", "setting": "in ethyl acetate, 293.15 K", "result": 0.105}, {"measurement": "solubility (mole fraction)", "setting": "in ethyl acetate, 298.15 K", "result": 0.126}, {"measurement": "solubility (mole fraction)", "setting": "in ethyl acetate, 303.15 K", "result": 0.151}, {"measurement": "solubility (mole fraction)", "setting": "in ethyl acetate, 308.15 K", "result": 0.172}, {"measurement": "solubility (mole fraction)", "setting": "in ethyl acetate, 313.15 K", "result": 0.202}, {"measurement": "solubility (mole fraction)", "setting": "in ethyl acetate, 318.15 K", "result": 0.239}, {"measurement": "solubility (mole fraction)", "setting": "in isobutanol, 288.15 K", "result": 0.098}, {"measurement": "solubility (mole fraction)", "setting": "in isobutanol, 293.15 K", "result": 0.112}, {"measurement": "solubility (mole fraction)", "setting": "in isobutanol, 298.15 K", "result": 0.137}, {"measurement": "solubility (mole fraction)", "setting": "in isobutanol, 303.15 K", "result": 0.161}, {"measurement": "solubility (mole fraction)", "setting": "in isobutanol, 308.15 K", "result": 0.192}, {"measurement": "solubility (mole fraction)", "setting": "in isobutanol, 313.15 K", "result": 0.22}, {"measurement": "solubility (mole fraction)", "setting": "in isobutanol, 318.15 K", "result": 0.26}, {"measurement": "solubility (mole fraction)", "setting": "in methanol, 288.15 K", "result": 0.161}, {"measurement": "solubility (mole fraction)", "setting": "in methanol, 293.15 K", "result": 0.181}, {"measurement": "solubility (mole fraction)", "setting": "in methanol, 298.15 K", "result": 0.204}, {"measurement": "solubility (mole fraction)", "setting": "in methanol, 303.15 K", "result": 0.226}, {"measurement": "solubility (mole fraction)", "setting": "in methanol, 308.15 K", "result": 0.255}, {"measurement": "solubility (mole fraction)", "setting": "in methanol, 313.15 K", "result": 0.28}, {"measurement": "solubility (mole fraction)", "setting": "in methanol, 318.15 K", "result": 0.318}, {"measurement": "solubility (mole fraction)", "setting": "in methyl acetate, 288.15 K", "result": 0.0955}, {"measurement": "solubility (mole fraction)", "setting": "in methyl acetate, 293.15 K", "result": 0.109}, {"measurement": "solubility (mole fraction)", "setting": "in methyl acetate, 298.15 K", "result": 0.129}, {"measurement": "solubility (mole fraction)", "setting": "in methyl acetate, 303.15 K", "result": 0.156}, {"measurement": "solubility (mole fraction)", "setting": "in methyl acetate, 308.15 K", "result": 0.179}, {"measurement": "solubility (mole fraction)", "setting": "in methyl acetate, 313.15 K", "result": 0.214}, {"measurement": "solubility (mole fraction)", "setting": "in methyl acetate, 318.15 K", "result": 0.251}, {"measurement": "solubility (mole fraction)", "setting": "in n-butanol, 288.15 K", "result": 0.111}, {"measurement": "solubility (mole fraction)", "setting": "in n-butanol, 293.15 K", "result": 0.131}, {"measurement": "solubility (mole fraction)", "setting": "in n-butanol, 298.15 K", "result": 0.152}, {"measurement": "solubility (mole fraction)", "setting": "in n-butanol, 303.15 K", "result": 0.181}, {"measurement": "solubility (mole fraction)", "setting": "in n-butanol, 308.15 K", "result": 0.205}, {"measurement": "solubility (mole fraction)", "setting": "in n-butanol, 313.15 K", "result": 0.245}, {"measurement": "solubility (mole fraction)", "setting": "in n-butanol, 318.15 K", "result": 0.283}, {"measurement": "solubility (mole fraction)", "setting": "in n-butyl acetate, 288.15 K", "result": 0.088}, {"measurement": "solubility (mole fraction)", "setting": "in n-butyl acetate, 293.15 K", "result": 0.0994}, {"measurement": "solubility (mole fraction)", "setting": "in n-butyl acetate, 298.15 K", "result": 0.115}, {"measurement": "solubility (mole fraction)", "setting": "in n-butyl acetate, 303.15 K", "result": 0.142}, {"measurement": "solubility (mole fraction)", "setting": "in n-butyl acetate, 308.15 K", "result": 0.163}, {"measurement": "solubility (mole fraction)", "setting": "in n-butyl acetate, 313.15 K", "result": 0.192}, {"measurement": "solubility (mole fraction)", "setting": "in n-butyl acetate, 318.15 K", "result": 0.227}]}
